Assays:
Conditions in all cases: 72 h
Vero E6 [1] = assay: drug sensitivity score (DSS) for viability; higher = more toxic; extreme values may be limits of the assay
U2OS [2] = assay: as above
HepG2 [3] = assay: as above
Calu-3 [4] = assay: as above
Caco-2 [5] = assay: as above
Vero E6 [6] = assay: relative viability EC50 (midpoint between 100% and the lowest measured viability); higher = less toxic
U2OS [7] = assay: as above
Calu-3 [8] = assay: as above
Caco-2 [9] = assay: as above
Vero E6 [10] = assay: cell viability relative to DMSO; higher = less toxic
U2OS [11] = assay: as above
HepG2 [12] = assay: as above
Calu-3 [13] = assay: as above
Caco-2 [14] = assay: as above
HepG2 [15] = assay: relative viability EC50 (midpoint between 100% and the lowest measured viability); higher = less toxic

Row | SMILES | drug sensitivity score (Vero E6 [1]) | drug sensitivity score (U2OS [2]) | drug sensitivity score (HepG2 [3]) | drug sensitivity score (Calu-3 [4]) | drug sensitivity score (Caco-2 [5]) | relative viability EC50 (Vero E6 [6]) [µM] | relative viability EC50 (U2OS [7]) [µM] | relative viability EC50 (Calu-3 [8]) [µM] | relative viability EC50 (Caco-2 [9]) [µM] | cell viability (Vero E6 [10]; 1 nM) [%] | cell viability (Vero E6 [10]; 10 nM) [%] | cell viability (Vero E6 [10]; 100 nM) [%] | cell viability (Vero E6 [10]; 1000 nM) [%] | cell viability (Vero E6 [10]; 10000 nM) [%] | cell viability (U2OS [11]; 1 nM) [%] | cell viability (U2OS [11]; 10 nM) [%] | cell viability (U2OS [11]; 100 nM) [%] | cell viability (U2OS [11]; 1000 nM) [%] | cell viability (U2OS [11]; 10000 nM) [%] | cell viability (HepG2 [12]; 1 nM) [%] | cell viability (HepG2 [12]; 10 nM) [%] | cell viability (HepG2 [12]; 100 nM) [%] | cell viability (HepG2 [12]; 1000 nM) [%] | cell viability (HepG2 [12]; 10000 nM) [%] | cell viability (Calu-3 [13]; 1 nM) [%] | cell viability (Calu-3 [13]; 10 nM) [%] | cell viability (Calu-3 [13]; 100 nM) [%] | cell viability (Calu-3 [13]; 1000 nM) [%] | cell viability (Calu-3 [13]; 10000 nM) [%] | cell viability (Caco-2 [14]; 1 nM) [%] | cell viability (Caco-2 [14]; 10 nM) [%] | cell viability (Caco-2 [14]; 100 nM) [%] | cell viability (Caco-2 [14]; 1000 nM) [%] | cell viability (Caco-2 [14]; 10000 nM) [%] | relative viability EC50 (HepG2 [15]) [µM]
1 | C[C@@H]1CCO[C@H]2Cn3cc(C(=O)NCc4ccc(F)cc4F)c(=O)c(O)c3C(=O)N12 [dolutegravir] | 0.4 | 0 | 2.1 | 0 | 0.1 | > 10 | > 10 | > 10 | > 10 | 97.3 | 99.7 | 97 | 100 | 81.9 | 104 | 103 | 104 | 95.6 | 98.5 | 101 | 114 | 107 | 100 | 57.6 | 117 | 113 | 101 | 91.1 | 105 | 102 | 94.4 | 97.6 | 97.7 | 88.2 | –
2 | CNC[C@H](O)c1ccc(O)c(O)c1 [epinephrine] | 0 | 0 | 3.1 | 0 | 0 | > 10 | > 10 | > 10 | > 10 | 93.3 | 89.7 | 95.1 | 89.6 | 111 | 96.9 | 101 | 98.2 | 104 | 105 | 108 | 106 | 104 | 94.4 | 57.5 | 101 | 110 | 111 | 111 | 97.3 | 93.7 | 105 | 86.3 | 98.5 | 90 | –
3 | CCOC(=O)[C@@H](N)CCC(=O)N[C@@H](CSCc1ccccc1)C(=O)N[C@@H](C(=O)OCC)c1ccccc1 [ezatiostat] | – | 0 | 0 | 0 | 0.4 | – | > 10 | > 10 | > 10 | – | – | – | – | – | 96.9 | 106 | 96.1 | 100 | 95.3 | 101 | 98.8 | 99.4 | 97.1 | 107 | 97.2 | 103 | 106 | 103 | 91.2 | 98.4 | 93.4 | 92 | 91 | 86.2 | > 10
4 | NC(=O)c1ccc(I)c([N+](=O)[O-])c1 [iniparib] | – | 0 | 0 | 0 | – | – | > 10 | > 10 | – | – | – | – | – | – | 104 | 95.8 | 96.4 | 104 | 98.4 | 91.2 | 106 | 107 | 94.2 | 106 | 110 | 99 | 103 | 102 | 114 | – | – | – | – | – | > 10
5 | CCCNS(=O)(=O)Nc1ncnc(OCCOc2ncc(Br)cn2)c1-c1ccc(Br)cc1 [macitentan] | – | 0 | 1.8 | 0 | 0 | – | > 10 | > 10 | > 10 | – | – | – | – | – | 101 | 99.5 | 100 | 99.4 | 101 | 99.5 | 108 | 92.7 | 85.5 | 91 | 97.2 | 94.1 | 105 | 99 | 103 | 102 | 99.7 | 102 | 104 | 108 | > 10
6 | O=C(N/N=C/c1ccc([N+](=O)[O-])o1)c1cc([N+](=O)[O-])cc([N+](=O)[O-])c1O [nifursol] | – | 0 | 0.3 | 0 | 0 | – | > 10 | > 10 | > 10 | – | – | – | – | – | 96.9 | 98.3 | 104 | 96.8 | 101 | 109 | 100 | 93 | 93.7 | 85.4 | 89.1 | 102 | 103 | 94.9 | 101 | 96.9 | 102 | 97.1 | 94.4 | 90.2 | > 10
7 | COc1ccc(-c2nc3cc(C4=NNC(=O)CC4C)ccc3[nH]2)cc1 (stereo unspecified) [pimobendan] | 0 | 0.5 | 1.7 | 0 | 1 | > 10 | > 10 | > 10 | > 10 | 105 | 110 | 99.2 | 101 | 92.7 | 107 | 105 | 103 | 97.7 | 84.7 | 120 | 113 | 103 | 105 | 59.5 | 98 | 85.8 | 112 | 95.8 | 90.8 | 106 | 104 | 98.4 | 96.4 | 80.7 | –
8 | CCCNCC(O)COc1ccccc1C(=O)CCc1ccccc1 (stereo unspecified) [propafenone] | 2.9 | 0 | 1 | 0 | 0 | – | > 10 | > 10 | > 10 | 106 | 108 | 106 | 92.2 | 64.9 | 99.1 | 93.1 | 95.6 | 94.3 | 92.5 | 99.3 | 94 | 96.4 | 99.4 | 75.1 | 105 | 95.3 | 103 | 93.7 | 99.7 | 94.7 | 89.5 | 98.4 | 92.8 | 88.9 | > 10
9 | CO[C@H]1/C=C/O[C@@]2(C)Oc3c(C)c(O)c4c(O)c(c(/C=N/N5CCN(C)CC5)c(O)c4c3C2=O)NC(=O)/C(C)=C\C=C\[C@H](C)[C@H](O)[C@@H](C)[C@@H](O)[C@@H](C)[C@H](OC(C)=O)[C@@H]1C [rifampin] | 1.2 | 0.3 | 0.1 | 0 | 0 | – | > 10 | > 10 | > 10 | 68.7 | 97.8 | 70.2 | 103 | 64.7 | 96 | 105 | 98.2 | 97.2 | 86.9 | 97.9 | 102 | 104 | 89.4 | 92.4 | 99.5 | 99.6 | 98.7 | 99.8 | 102 | 88.9 | 88.7 | 90.8 | 88.5 | 105 | > 10
10 | Cc1cc(C)c(/C=C2\C(=O)Nc3ccccc32)[nH]1 [semaxanib] | 0 | 0 | 2.4 | 0 | 0 | > 10 | > 10 | > 10 | > 10 | 103 | 102 | 98.7 | 105 | 106 | 99.7 | 96.6 | 100 | 99.4 | 97.4 | 99 | 96.2 | 91 | 92 | 67.1 | 93.2 | 87.4 | 93.6 | 94.9 | 102 | 103 | 90.6 | 100 | 90.4 | 91.3 | –
11 | O=C1NCCN1CCN1CCC(c2cn(-c3ccc(F)cc3)c3ccc(Cl)cc23)CC1 [sertindole] | 3.3 | 0.5 | 6.4 | 0.1 | 4.6 | – | > 10 | > 10 | – | 106 | 118 | 105 | 88.6 | 64.5 | 93.8 | 95.3 | 94.6 | 99.8 | 81 | 96.7 | 105 | 93.4 | 87.7 | 20.9 | 88.1 | 112 | 96.9 | 92.2 | 90 | 97.1 | 98.3 | 89.1 | 80.7 | 56.6 | 1.95
12 | CN[C@@H]1[C@H](O)[C@H](NC)[C@H]2O[C@@]3(O)C(=O)C[C@@H](C)O[C@H]3O[C@@H]2[C@H]1O [spectinomycin] | 1.2 | 0 | 0 | 0 | 0 | – | > 10 | > 10 | > 10 | 56 | 108 | 55.1 | 108 | 59.1 | 101 | 107 | 100 | 102 | 98.5 | 88.4 | 105 | 98.7 | 106 | 96.7 | 92.2 | 100 | 105 | 103 | 88.7 | 100 | 102 | 99.4 | 109 | 91.9 | > 10
13 | O=C(N[C@@H]1CC[C@@H](c2cccc(F)c2F)CN(CC(F)(F)F)C1=O)N1CCC(n2c(=O)[nH]c3ncccc32)CC1 [telcagepant] | – | 0 | 0 | 0 | 0.6 | – | > 10 | > 10 | > 10 | – | – | – | – | – | 98.5 | 99.1 | 104 | 97 | 97.6 | 102 | 101 | 96.9 | 98.8 | 93.2 | 94.7 | 98.1 | 95.7 | 105 | 108 | 104 | 96 | 102 | 90.2 | 86.7 | > 10
14 | CC(C)n1nccc1-c1ncccc1COc1cccc(O)c1C=O [voxelotor] | – | 0 | 0 | 0 | 0.2 | – | > 10 | > 10 | > 10 | – | – | – | – | – | 102 | 97.1 | 96.5 | 95.8 | 94.8 | 98.1 | 109 | 96.9 | 109 | 101 | 100 | 92.4 | 102 | 98.8 | 101 | 101 | 95.4 | 96.5 | 104 | 84.6 | > 10
15 | CN(C)CCOC1=Cc2ccccc2Sc2ccc(Cl)cc21 [zotepine] | 2.2 | 0 | 4.3 | 0.4 | 0 | – | > 10 | > 10 | > 10 | 99.4 | 93.6 | 98.6 | 94.1 | 70.4 | 104 | 97.2 | 97.7 | 91.5 | 92.4 | 104 | 95 | 98.7 | 91.8 | 45.7 | 101 | 85.3 | 93.3 | 104 | 80.8 | 92.4 | 84.1 | 91.9 | 90.7 | 75.7 | 1.98

Reference: the supplement of paper PMC13380429
